Assay results taken from PMC12547551, “Lanostane–Meroterpene Conjugates with Unusual Aryl Ether Linkage and a Lanostane Dimer from Artificially Cultivated Fruiting Bodies of Ganoderma cf. hochiminhense” (ACS Omega, 2025).
Values after ≈ are worked out from the molar mass of the structure shown.

Key:
[1] = tested on: Plasmodium falciparum K1; assay: Antiplasmodial assay, microculture radioisotope technique; assay type: cell-based; settings: P. falciparum K1, standard drug
[2] = tested on: Mycobacterium tuberculosis H37Ra; assay: Antimycobacterial activity, green fluorescent protein detection method; assay type: cell-based; settings: M. tuberculosis H37Ra, standard drugs
[3] = tested on: NCI-H187 (small-cell lung cancer) cells; assay: Cytotoxicity against NCI-H187 cells, resazurin fluorescent method; assay type: cell-based; settings: Homo sapiens
[4] = tested on: MCF-7 (breast cancer) cells; assay: Cytotoxicity against MCF-7 cells, resazurin fluorescent method; assay type: cell-based; settings: Homo sapiens, MCF7
[5] = tested on: Vero cells; assay: Cytotoxicity to Vero cells, green fluorescent protein detection method; assay type: cell-based, African green monkey; settings: Chlorocebus sabaeus; nonmalignant Vero cells

Structure (SMILES) | IC50 [1] | MIC [2] | IC50 [3] | IC50 [4] | IC50 [5]
C[C@H]1[C@@H](O)O[C@@H]2O[C@@]3(C)CC[C@H]4[C@H](C)CC[C@@H]1[C@@]24OO3 [Dihydroartemisinin] | 0.0014 µM |  |  |  | 
CO[C@H]1/C=C/O[C@@]2(C)Oc3c(C)c(O)c4c(O)c(c(/C=N/N5CCN(C)CC5)c(O)c4c3C2=O)NC(=O)/C(C)=C\C=C\[C@H](C)[C@H](O)[C@@H](C)[C@@H](O)[C@@H](C)[C@H](OC(C)=O)[C@@H]1C [Rifampicin] |  | 0.025 µg/mL (≈ 0.0304 µM) |  |  | 
CCN(CC)CCCC(C)Nc1ccnc2cc(Cl)ccc12 (centres unmarked) [chloroquine] | 0.58 µM |  |  |  | 
COc1cccc2c1C(=O)c1c(O)c3c(c(O)c1C2=O)C[C@@](O)(C(=O)CO)C[C@@H]3O[C@H]1C[C@H](N)[C@H](O)[C@H](C)O1 [doxorubicin, reference compound] |  |  | 0.15 µM | 11 µM | 
Cc1c2ccncc2c(C)c2c1[nH]c1ccccc12 [ellipticine, reference compound] |  |  | 7.6 µM |  | 6 µM
CC(C)=CCC/C(=C/Cc1cc(O)ccc1O)C(=O)O [fornicin F (10), Fornicin F] |  |  | 134 µM | > 181 µM | > 181 µM
CCC(=O)CC[C@@]1(C)OC[C@]23[C@@H](O)C(=O)C4=C(C(=O)C[C@@H]([C@@]5(C)CO5)[C@]4(C)CCC(=O)O[C@@H](CC[C@@H](C)[C@H]4CC[C@@]5(C)C6=CC[C@H]7C(C)(C)C(=O)CC[C@]7(C)C6=CC[C@]45C)C(C)(C)O)[C@]2(C)CC[C@@H]31 [ganohochimate A (9), Ganohochimate A] |  |  | > 52 µM | > 52 µM | 52 µM
CC(C)=CCCC(C)=CCCC(=CCc1cc(O)ccc1OC(C)(C)C(O)CCC(C)C1CCC2(C)C3=CCC4C(C)(C)C(=O)CCC4(C)C3=CCC12C)C(=O)O (centres unmarked) [ganohochimin A (1), Ganohochimin A] |  |  | 19 µM | > 64 µM | 17 µM
CC(C)=CCC/C(C)=C/CC/C(=C/Cc1cc(O)ccc1OC(C)(C)[C@@H](O)CC[C@@H](C)[C@H]1CC[C@@]2(C)C3=CC[C@H]4C(C)(C)[C@@H](O)CC[C@]4(C)C3=CC[C@]12C)C(=O)O [ganohochimin B (2), Ganohochimin B] |  |  | 33 µM | > 64 µM | 28 µM
CC(C)=CCC/C(C)=C/CC/C(=C/Cc1cc(OC(C)(C)[C@@H](O)CC[C@@H](C)[C@H]2CC[C@@]3(C)C4=CC[C@H]5C(C)(C)C(=O)CC[C@]5(C)C4=CC[C@]23C)ccc1O)C(=O)O [ganohochimin C (3), Ganohochimin C] |  |  | 21 µM | > 64 µM | 30 µM
CC(C)=CCC/C(C)=C/CC/C(=C/Cc1cc(OC(C)(C)[C@@H](O)CC[C@@H](C)[C@H]2CC[C@@]3(C)C4=CC[C@H]5C(C)(C)[C@@H](O)CC[C@]5(C)C4=CC[C@]23C)ccc1O)C(=O)O [ganohochimin D (4), Ganohochimin D] |  |  | 16 µM | > 64 µM | 28 µM
CC(C)=CCC/C(=C/Cc1cc(O)ccc1OC(C)(C)[C@@H](O)CC[C@@H](C)[C@H]1CC[C@@]2(C)C3=CC[C@H]4C(C)(C)C(=O)CC[C@]4(C)C3=CC[C@]12C)C(=O)O [ganohochimin E (5), Ganohochimin E] |  |  | 21 µM | > 70 µM | 13 µM
CC(C)=CCC/C(=C/Cc1cc(O)ccc1OC(C)(C)[C@@H](O)CC[C@@H](C)[C@H]1CC[C@@]2(C)C3=CC[C@H]4C(C)(C)[C@@H](O)CC[C@]4(C)C3=CC[C@]12C)C(=O)O [ganohochimin F (6), Ganohochimin F] |  |  | 7.7 µM | > 70 µM | 6.3 µM
CC(C)=CCC/C(=C/Cc1cc(OC(C)(C)[C@@H](O)CC[C@@H](C)[C@H]2CC[C@@]3(C)C4=CC[C@H]5C(C)(C)C(=O)CC[C@]5(C)C4=CC[C@]23C)ccc1O)C(=O)O [ganohochimin G (7), Ganohochimin G] |  |  | 21 µM | > 70 µM | 14 µM
CC(C)=CCC/C(=C/Cc1cc(OC(C)(C)[C@@H](O)CC[C@@H](C)[C@H]2CC[C@@]3(C)C4=CC[C@H]5C(C)(C)[C@@H](O)CC[C@]5(C)C4=CC[C@]23C)ccc1O)C(=O)O [ganohochimin H (8), Ganohochimin H] |  |  | 18 µM | > 70 µM | 24 µM
NNC(=O)c1ccncc1 [isoniazid] |  | 0.375 µg/mL (≈ 2.73 µM) |  |  | 
